Data published in ChEMBL document CHEMBL4616639, “Simplistic perylene-related compounds as inhibitors of tick-borne encephalitis virus reproduction” (Bioorg Med Chem Lett, 2020).
pEC50: −log10 of the molar value.

How the values were obtained:
[1] = Cytotoxicity against porcine PEK cells assessed as reduction in cell viability after 24 hrs by microscopic method; format: cell-based, Sus scrofa; details: pig
[2] = Cytotoxicity against porcine PEK cells assessed as reduction in cell viability after 7 days by microscopic method; format: cell-based, Sus scrofa; details: pig
[3] = tested on: Tick-borne encephalitis virus; assay: microbe, parasite or virus in culture; format: functional, organism-based; details: PEK
[4] = Selectivity index, ratio of CC50 for porcine PEK cells assessed as reduction in cell viability after 24 hrs by microscopic method to EC50 for TBEV Absettarov infected in porcine PEK cells assessed as plaque reduction preincubated for 1 hr followed by overlaying with 1.26% methylcellulose and measured after 6 days by gentian violet staining-based assay; format: toxicity; details: pig, read-out: Ratio CC50/EC50

| SMILES | CC50 at 24 h [1] [µM] | CC50 at 168 h [2] [µM] | pEC50 [3] | selectivity ratio at 24 h [4] |
| --- | --- | --- | --- | --- |
| O=c1[nH]c(=O)n([C@@H]2O[C@H](CO)[C@@H](O)[C@@H]2O)cc1C#Cc1ccc2c3cccc4cccc(c5cccc1c52)c43 | > 50 | > 50 |  |  |
| OC[C@H]1O[C@@H](n2cnc3c(NCc4c5ccccc5cc5ccccc45)ncnc32)[C@H](O)[C@@H]1O | > 50 | > 50 | 4.66 |  |
| O=c1[nH]c(=O)n([C@@H]2O[C@H](CO)[C@@H](O)[C@H]2O)cc1C#Cc1ccc2c3cccc4cccc(c5cccc1c52)c43 | > 100 | > 100 | 8.11 |  |
| O=c1[nH]cc(C#Cc2ccc3c4cccc5cccc(c6cccc2c63)c54)c(=O)[nH]1 | > 100 | 37 | 8.10 |  |
| CO[C@@H]1[C@H](O)[C@@H](CO)O[C@H]1n1cc(C#Cc2ccc3c4cccc5cccc(c6cccc2c63)c54)c(=O)[nH]c1=O | > 50 | 38 | 8.22 |  |
| CN(C)c1ccc(C#Cc2ccc3c4cccc5cccc(c6cccc2c63)c54)cc1 | > 100 | > 100 | 7.60 |  |
| O=C(O)c1ccc(-c2ccc3c4cccc5cccc(c6cccc2c63)c54)s1 | > 70 | 26 | 8.80 | > 30000 |
| CC(=O)Nc1ccc(C#Cc2ccc3c4cccc5cccc(c6cccc2c63)c54)cc1 | > 100 | > 100 | 7.05 |  |
| CCCCNC(=O)c1ccc(-c2ccc3c4cccc5cccc(c6cccc2c63)c54)s1 | > 100 | > 100 | 8.41 |  |
| O=C(NCCCCO)c1ccc(-c2ccc3c4cccc5cccc(c6cccc2c63)c54)s1 | > 70 | > 70 | 8.05 |  |
| O=C(O)c1ccc2c3cccc4cccc(c5cccc1c52)c43 | > 50 | 37 | 7.43 |  |
| O=C(c1ccc(-c2ccc3c4cccc5cccc(c6cccc2c63)c54)s1)N(CCO)CCO | > 70 | > 70 | 7.82 |  |
| Cc1cc(O)c2c3c4c(cc(O)c13)C(C)(C)C(=O)c1c(O)cc(O)c(c1-4)C2=O [HELIOMYCIN] | 3.7 | 3.7 | 6.82 |  |
